From article PMC10992382, “Discovery of a readily heterologously expressed Rubisco from the deep sea with potential for CO2 capture” (Bioresources and Bioprocessing, 2021)

Target: T1, 7002 Rubisco (Picosynechococcus sp. PCC 7002, UniProt Q44176)
T1 construct: gene cbbL; C-terminal His6 tag on large subunit; large and small subunits co-expressed with chaperone RbcX from pET30a in E. coli BL21(DE3); hexadecamer; with Ribulose bisphosphate carboxylase small subunit
Test: […]-CABP active-site binding assay
Details: labelled compound; active-site titration only

T1 sequence (Q44176 whole entry): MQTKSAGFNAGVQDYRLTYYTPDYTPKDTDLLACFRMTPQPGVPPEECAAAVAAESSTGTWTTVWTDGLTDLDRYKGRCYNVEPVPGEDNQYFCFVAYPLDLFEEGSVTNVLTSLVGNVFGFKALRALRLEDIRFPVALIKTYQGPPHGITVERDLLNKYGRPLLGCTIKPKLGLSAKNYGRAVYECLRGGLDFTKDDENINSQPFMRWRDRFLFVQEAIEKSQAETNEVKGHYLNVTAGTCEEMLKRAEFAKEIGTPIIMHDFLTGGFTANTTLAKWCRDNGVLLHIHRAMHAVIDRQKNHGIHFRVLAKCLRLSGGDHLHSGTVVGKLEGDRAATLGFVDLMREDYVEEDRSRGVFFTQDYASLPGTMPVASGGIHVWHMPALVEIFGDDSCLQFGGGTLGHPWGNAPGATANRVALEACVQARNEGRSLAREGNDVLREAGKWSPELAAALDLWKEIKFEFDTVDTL
T1 sequence (Q44178 whole entry, further chain): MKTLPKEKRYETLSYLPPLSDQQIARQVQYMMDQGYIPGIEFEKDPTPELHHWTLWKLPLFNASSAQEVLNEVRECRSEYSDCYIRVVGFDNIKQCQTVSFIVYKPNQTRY

O=C(O)[C@@](O)(COP(=O)(O)O)[C@H](O)[C@H](O)COP(=O)(O)O [CABP, 2-carboxyarabinitol-1,5-diphosphate]
14C-CABP active-site binding assay: Active sites of Rubisco in purified enzymes were determined as reported
